Source: paper PMC5884652, “New antimicrobial peptide kills drug-resistant pathogens without detectable resistance” (Oncotarget, 2018)
Where two headings read alike, the source gives them in different places. Ends that are not written are not given here.

Key:
S. aureus ATCC 29213 [1] = assay type: cell-based, Staphylococcus aureus
Description: The method for peptide synthesis has been described in detail previously. […] Bacillus subtilis KCTC 1998 (LB media), Salmonella typhimurium KCTC 1926 (NB media), and Proteus vulgaris KCTC 2433 (NB media) were obtained from the Korean Collection for Type Cultures (Jeollabuk-do, Korea). E. coli CCARM 1238 was received from the Culture Collection of Antibiotic Resistant Microbes at Seoul Women’s University, Korea. Drug-resistant P. aeruginosa 3543, 3904, 3547, and 4007 and S. aureus 3126, 0027, 5157, 1635, 4761, 5159, 3359, 2122, 1630, 1870, 3511, 5156, and 3518 were resistant strains isolated from patients with otitis media in a Chonnam National University’s hospital.
(§1) The antibacterial activities of AMPs (melittin, clavaspirin, and its analogs) and conventional antibiotic drugs (erythromycin, gentamicin, ampicillin, and piperacidin) were determined using microdilution assays. Bacterial cells were cultured at 37° C in appropriate culture media at pH 5.5 or pH 7.4 until collection during the mid-log phase and suspended in 10 mM sodium phosphate buffer (pH 5.5 or pH 7.4) supplemented with 10% culture medium. Thereafter, 2× serial dilutions of each peptide (0.25–128 μM) or antibiotic (0.25–256 μM) were added to sterile 96-well plates, and aliquots of cell suspension (5 × 10^5 colony forming units (cfu)/mL) were seeded into each well. The samples were then incubated at 37° C for 24 h. At the end of the incubation, the minimum inhibitory concentrations (MICs) of the peptides were determined using a VERSA Max microplate reader (Molecular Devices Co., Sunnyvale, CA, USA) at a wavelength of 600 nm. […] MIC values were calculated as the mean of 3 independent experiments conducted in triplicate.

[2] = system: Proteus vulgaris KCTC 2433; assay type: cell-based
Description: (§2) The method for peptide synthesis has been described in detail previously. E. coli ATCC 25922 (LB media), P. aeruginosa ATCC 15692 (NB+0.5% NaCl media), Listeria monocytogenes ATCC 3710 (LB media), Staphylococcus epidermidis ATCC 12228 (LB media), and S. aureus ATCC 29213 (TSB media) were obtained from the American Type Culture Collection (Manassas, VA, USA). […] E. coli CCARM 1238 was received from the Culture Collection of Antibiotic Resistant Microbes at Seoul Women’s University, Korea. Drug-resistant P. aeruginosa 3543, 3904, 3547, and 4007 and S. aureus 3126, 0027, 5157, 1635, 4761, 5159, 3359, 2122, 1630, 1870, 3511, 5156, and 3518 were resistant strains isolated from patients with otitis media in a Chonnam National University’s hospital.
as §1

[3] = system: Salmonella typhimurium KCTC 1926; assay type: cell-based
Description: as §2, §1

[4] = C18 RP-HPLC retention time as measure of hydrophobicity; assay type: physicochemical; details: chromatographic, linear gradient of 10–60 acetonitrile containing 0.7% trifluoroacetic acid for 50 min, mean, used as measure of hydrophobicity
Method: Supplementary Table 1: Sequence, molecular mass, retention time, and hemolytic and cytotoxic activities of clavaspirin and its analogues
Designation Sequences Molecular Retention HC /HC a EC /EC b
The meanretention time was analyzed using C18 reversed phase-high-performance liquid chromatography (RP-HPLC).
Samples were run using a linear gradient of 10–60 acetonitrile, containing 0.7% trifluoroacetic acid for 50 min. aHemolytic activity was determined in PBS buffer containing 8% hRBCs. bEffective concentration in HaCaT cells was determined in DMEM buffer containing 10% FBS and 1% PS.

S. aureus ATCC 29213 [5] = assay: microbe, parasite or virus in culture
Method: To determine the MICs of CSP-4, a single colony of S. aureus ATCC 29213 was cultured at 37° C in tryptic soy broth, as well as daptomycin and linezolid, which served as commercial antibiotic positive controls. […] For each agent, the MIC was determined daily for 29 days at pH 5.5 and/or for 8 days at pH 7.4 using cells from wells containing half the MIC (1/2 MIC well). […] All MICs were determined in duplicate.

E. coli ATCC 25922 = assay type: cell-based, Escherichia coli
Description: The method for peptide synthesis has been described in detail previously. E. coli ATCC 25922 (LB media), P. aeruginosa ATCC 15692 (NB+0.5% NaCl media), Listeria monocytogenes ATCC 3710 (LB media), Staphylococcus epidermidis ATCC 12228 (LB media), and S. aureus ATCC 29213 (TSB media) were obtained from the American Type Culture Collection (Manassas, VA, USA). Bacillus subtilis KCTC 1998 (LB media), Salmonella typhimurium KCTC 1926 (NB media), and Proteus vulgaris KCTC 2433 (NB media) were obtained from the Korean Collection for Type Cultures (Jeollabuk-do, Korea). E. coli CCARM 1238 was received from the Culture Collection of Antibiotic Resistant Microbes at Seoul Women’s University, Korea. Drug-resistant P. aeruginosa 3543, 3904, 3547, and 4007 and S. aureus 3126, 0027, 5157, 1635, 4761, 5159, 3359, 2122, 1630, 1870, 3511, 5156, and 3518 were resistant strains isolated from patients with otitis media in a Chonnam National University’s hospital.
as §1

[6] = Aggregation assay (light scattering); assay type: physicochemical; details: 10 mM sodium phosphate buffer; for Self-aggregation: light scattering ex 400 nm / em 400 nm, 12 h, 37° C, mean of three experiments
Method: Light scattering assays were performed with clavaspirin and its analogue peptides using a Perkin-Elmer LS55 fluorometer. Peptides were dissolved in 10 mM sodium phosphate buffer (pH 5.5 or pH 7.4) and incubated for 12 h at 37° C. Light scattering was excited at 400 nm and the emission was scanned at 400 nm.

E. coli = assay: Time-kill kinetics; assay type: cell-based; details: pH 5.5 and pH 7.4, peptides at their respective MICs
Method: E. coli were grown overnight in LB broth (pH 5.5 or pH 7.4) and diluted to an OD600 of 0.05. CSP-4 was then added so that the final concentration was either the MIC or 1/2 MIC. E. coli cells were then sampled at 1-min intervals for the first 10 min and at 10-min intervals thereafter for 2 h. The cultures were then diluted 50-fold in PBS buffer and plated on LB agar. Colonies were counted after 24 h.

[7] = pH 5.5 (I), 10 mM sodium phosphate buffer, 10% LB, 37° C, 24 h, mean of 3 experiments
[8] = pH 7.4 (II), 10 mM sodium phosphate buffer, 10% LB, 37° C, 24 h, mean of 3 experiments

FLRFIGSVKHGKGHLVHHIGVAL-NH2 [CSP-4]
MIC, S. aureus (S. aureus ATCC 29213 [1]; [7]): 8 µM
MIC, S. aureus (S. aureus ATCC 29213 [1]; [8]): 8 µM
MIC, P. vulgaris [2, 7]: 4 µM
MIC, P. vulgaris [2, 8]: 8 µM
MIC, S. typhimurium [3, 7]: 64 µM
MIC, S. typhimurium [3, 8]: 4 µM
Retention time [4]: 20.2 min
MIC after 29 passages (S. aureus ATCC 29213 [5]; after exposure for 29 passages): 16 µM
Increase of MIC (S. aureus ATCC 29213 [5]; after exposure for 29 passages, pH not given): approximately 2 ×
Induction of drug resistance (S. aureus ATCC 29213 [5]; exposure for up to 29 passages): did not induce drug resistance
MIC, E. coli (E. coli ATCC 25922; [7]): 2 µM
MIC, E. coli (E. coli ATCC 25922; [8]): 4 µM
Self-aggregation ([6]; pH 5.5): very little self-aggregation
Effect of varying the pH on aggregation ([6]; pH 5.5 vs pH 7.4, light scattering): not affected
Self-aggregation ([6]; pH 7.4): very little self-aggregation
Killing kinetics (E. coli): reduced bacterial growth faster than CSP

FKRFIGSVKHGIGHLVHHIGVAL-NH2 [CSP-3]
MIC, S. aureus (S. aureus ATCC 29213 [1]; ATCC 29213, 24 h, pH 5.5): 8 µM
MIC, S. aureus (S. aureus ATCC 29213 [1]; ATCC 29213, 24 h, pH 7.4): 8 µM
MIC, P. vulgaris ([2]; KCTC 2433, 24 h, pH 5.5): 4 µM
MIC, P. vulgaris ([2]; KCTC 2433, 24 h, pH 7.4): 8 µM
MIC, S. typhimurium ([3]; KCTC 1926, 24 h, pH 5.5): 64 µM
MIC, S. typhimurium ([3]; KCTC 1926, 24 h, pH 7.4): 4 µM
Retention time [4]: 21.4 min
MIC, E. coli (E. coli ATCC 25922; ATCC 25922, 24 h, pH 5.5): 2 µM
MIC, E. coli (E. coli ATCC 25922; ATCC 25922, 24 h, pH 7.4): 4 µM
Self-aggregation ([6]; pH 7.4): aggregation increased
